Source: US12630534B2 (TAKEDA PHARMACEUTICAL COMPANY LIMITED, priority 2020, dated 2026)

Assays:
human GPR139 [1] = molecular target: T1, human GPR139 (Homo sapiens, UniProt Q6DWJ6); test: Inhibition rate of the amount of IP1 in GPR139-expressed CHO cells (inverse agonist assay, Test Example 2); type: cell-based; details: CHO, relative value, inhibition rate of Example Compound 2 in Test Example 1 defined as 100%
T1 construct: expressed in transfected cells; host or cells: CHO-TREx (Life Technologies) cells, expression induced with doxycycline
T1 sequence (Q6DWJ6 1-353): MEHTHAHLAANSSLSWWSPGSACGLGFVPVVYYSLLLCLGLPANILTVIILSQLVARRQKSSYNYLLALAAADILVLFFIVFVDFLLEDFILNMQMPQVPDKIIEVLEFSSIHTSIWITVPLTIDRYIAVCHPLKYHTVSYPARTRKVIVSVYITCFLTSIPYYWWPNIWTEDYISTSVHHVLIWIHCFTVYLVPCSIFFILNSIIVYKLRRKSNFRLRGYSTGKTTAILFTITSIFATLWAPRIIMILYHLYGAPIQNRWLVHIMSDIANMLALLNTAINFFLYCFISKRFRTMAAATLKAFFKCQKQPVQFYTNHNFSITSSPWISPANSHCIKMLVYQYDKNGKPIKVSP
Method in brief: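 IP1 accumulation read by IP-One HTRF after 40 min compound exposure at 37° C in stimulation buffer, 2000 cells/well, GPR139 expression induced the day before with doxycycline. Results given as relative inhibition rate, normalised to a reference compound set at […].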

human GPR139 [2] = molecular target: T1, human GPR139; test: Inhibition rate of the amount of IP1 in GPR139-expressed CHO cells (Test Example 1, IP-ONE HTRF assay); type: cell-based
Protocol: Measurement of the Inhibition Rate of the Amount of IP1 in 30 μM of the Compound of Example 2 in GPR139-Expressed CHO Cells
Changes in the amount of IP1 in GPR139-expressed CHO cells were measured in order to evaluate the activity of the compound via GPR139. GPR139 is a Gq-coupled receptor which varies intracellular calcium (Liu C et al., Mol Pharmacol. 2015 November; 88(5):911-25), so the amount of IP1, which is a stable metabolite of the second messenger IP3, changes due to activity regulation of GPR139. GPR139 is considered to be […] when expressed recombinantly in mammal cells, so a compound having a GPR139 receptor inverse agonist action is expected to reduce the amount of IP1 production.
The measurement of IP1 was made using an IP-ONE HTFR assay kit (cis-bio) and CHO-TREx (Life Technologies) cells stably transfected with GPR139. The CHO-TREx cells expressed human GPR139 with a tetracycline-inducing element. […]
The compound was diluted with the stimulation buffer, and 4 μL was added to a 384-well white assay plate (Greiner). […] After the fluorescence strengths of two wavelengths were measured by the HTRF settings of Envision (PerkinElmer), the value of Ratio={(Signal 665 nm)/(Signal 615 nm)}×10000 was calculated.

Row | inhibition at 30 µM (human GPR139 [1]) | Structure (SMILES) | GPR139 receptor inverse agonist action (result in words) (human GPR139 [2])
1 | 100% | CCn1cc(Cn2ccn(-c3cc(N4CCO[C@H](C)C4)cc(C(F)(F)F)c3F)c2=O)cn1 [Example 2, 1-[(1-Ethyl-1H-pyrazole-4-yl)methyl]-3-{2-fluoro-5-[(2R)-2-methylmorpholine-4-yl]-3-(trifluoromethyl)phenyl}-1,3-dihydro-2H-imidazole-2-one] | exhibits GPR139 receptor inverse agonist action
2 | 98% | CCn1cc(Cn2c(C)cn(-c3cc(N4CCOC(C)(C)C4)cc(Cl)c3F)c2=O)cn1 [Example 166, 1-[3-chloro-5-(2,2-dimethylmorpholin-4-yl)-2-fluorophenyl]-3-[(1-ethyl-1H-pyrazol-4-yl)methyl]-4-methyl-1,3-dihydro-2H-imidazol-2-one] | 
3 | 97% | CCn1cc(Cn2c(C)cn(-c3cc(N4CCC(F)(F)CC4)cc(Cl)c3F)c2=O)cn1 [Example 167, 1-[3-chloro-5-(4,4-difluoropiperidin-1-yl)-2-fluorophenyl]-3-[(1-ethyl-1H-pyrazol-4-yl)methyl]-4-methyl-1,3-dihydro-2H-imidazol-2-one] | 
